Drawing on the supplement of paper PMC10307832, this text covers relative viability for one cell line.

What all share (assay): relative viability (nuclei count vs DMSO), 5 days (fraction); higher = more cells survive
Compound in experiment [1]: C=CC(=O)Nc1cc(-n2c(=O)ccc3cnc4ccc(-c5ccc(NS(C)(=O)=O)cc5)cc4c32)ccc1C [BMX-IN-1] + C[C@]1(O)C[C@@H](c2nc(-c3ccc4ccc(-c5ccccc5)nc4c3)c3c(N)nccn32)C1 [Linsitinib] (partner 1 µM)
In outline: (§1)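 Dosing by pin tool came one day after lung cancer cell lines were seeded in 1536-well plates, using either one drug or a fixed anchor-drug dose plus five library-drug doses (not always all listed) in √10 steps. After 5 days, nuclei were counted on 4× images. Relative viability is treated-well nuclei count divided by vehicle-well nuclei count, and values are medians of duplicate plates.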

Compound in experiment [2]: C=CC(=O)N1CCC[C@@H](n2nc(-c3ccc(Oc4ccccc4)cc3)c3c(N)ncnc32)C1 [Ibrutinib] + Nc1nc2[nH]cc(CCc3ccc(C(=O)N[C@@H](CCC(=O)O)C(=O)O)cc3)c2c(=O)[nH]1 [Pemetrexed] (partner 0.2 µM)
The essentials:
as §1

Compound in experiment [3]: C=CCc1cccc(/C=N/NC(=O)CN2CCN(Cc3ccccc3)CC2)c1O [PAC-1] + C[C@]1(O)C[C@@H](c2nc(-c3ccc4ccc(-c5ccccc5)nc4c3)c3c(N)nccn32)C1 [Linsitinib] (partner 1 µM)
In outline: as §1

Compound in experiment [4]: C=CC(=O)N1CCC[C@@H](n2nc(-c3ccc(Oc4ccccc4)cc3)c3c(N)ncnc32)C1 [Ibrutinib] + CCNC(=O)c1noc(-c2cc(C(C)C)c(O)cc2O)c1-c1ccc(CN2CCOCC2)cc1 [Luminespib] (partner 0.01 µM)
The essentials: as §1

As for SK-MES-1, the relative viability turned out to be 1.11 in experiment [1] (first compound 0.02 µM); 1.06 in experiment [1] (first compound 0.2 µM); 1.15 in experiment [1] (first compound 0.6325 µM); 1.07 in experiment [1] (first compound 2 µM); 1.01 in experiment [2] (first compound 0.005 µM); 0.951 in experiment [2] (first compound 0.01581 µM). Also, the relative viability was 0.905 in experiment [2] (first compound 0.05 µM); 1.14 in experiment [2] (first compound 0.1581 µM); 0.752 in experiment [2] (first compound 0.5 µM); 1.04 in experiment [3] (first compound 0.02 µM); 1.03 in experiment [3] (first compound 0.06325 µM); 1.04 in experiment [3] (first compound 0.2 µM). The relative viability was found to be 1.03 in experiment [3] (first compound 2 µM); 0.619 in experiment [4] (first compound 0.005 µM); 0.66 in experiment [4] (first compound 0.01581 µM); 0.77 in experiment [4] (first compound 0.05 µM); 0.842 in experiment [4] (first compound 0.1581 µM); 0.443 in experiment [4] (first compound 0.5 µM).
